Measurements taken from ChEMBL document CHEMBL1159043, “Synthesis and hSERT activity of homotryptamine analogs. Part 6: [3+2] dipolar cycloaddition of 3-vinylindoles” (Bioorg Med Chem Lett, 2010).

Each compound was assayed against Sodium-dependent serotonin transporter (Homo sapiens, UniProt P31645) (assay: Displacement of [I125]RTI-55 from human SERT transfected in human HEK293 cells).
Sequence of Sodium-dependent serotonin transporter (P31645 whole entry): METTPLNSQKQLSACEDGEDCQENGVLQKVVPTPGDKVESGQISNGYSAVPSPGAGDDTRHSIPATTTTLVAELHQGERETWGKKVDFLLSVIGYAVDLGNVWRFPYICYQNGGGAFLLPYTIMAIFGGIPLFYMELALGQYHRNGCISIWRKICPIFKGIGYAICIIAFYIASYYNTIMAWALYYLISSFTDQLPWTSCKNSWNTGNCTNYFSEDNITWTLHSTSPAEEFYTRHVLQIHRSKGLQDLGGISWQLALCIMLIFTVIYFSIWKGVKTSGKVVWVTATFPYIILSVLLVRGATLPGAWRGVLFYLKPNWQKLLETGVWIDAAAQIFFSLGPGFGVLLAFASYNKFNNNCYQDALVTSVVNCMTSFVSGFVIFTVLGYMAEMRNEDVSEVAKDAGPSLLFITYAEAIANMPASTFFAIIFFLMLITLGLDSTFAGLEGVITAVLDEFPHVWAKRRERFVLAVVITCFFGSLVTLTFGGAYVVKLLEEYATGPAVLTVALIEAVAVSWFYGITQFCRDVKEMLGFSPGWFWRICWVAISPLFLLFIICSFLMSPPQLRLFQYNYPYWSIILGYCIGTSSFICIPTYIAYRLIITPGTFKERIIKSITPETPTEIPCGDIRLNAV
Assay type: cell-based
`CN1CCOCC1CCc1c[nH]c2ccc(C#N)cc12` (configuration not stated) showed an IC50 of 76 nM. `CN1CCc2ccccc2C1CCc1c[nH]c2ccc(C#N)cc12` (single isomer, unassigned; (-)) [listing 1 of 2 here] gave an IC50 of 0.42 nM. Compound `CN1CC[C@H](Cc2ccccc2)C[C@@H]1CCc1c[nH]c2ccc(C#N)cc12` has an IC50 of 7.6 nM. `N#Cc1ccc2[nH]cc(CCC3CCCCN3CCC(F)(F)F)c2c1` (configuration not stated) gave an IC50 of 80 nM. With `N#Cc1ccc2[nH]cc(CCC3CCCN3)c2c1` (configuration not stated) the IC50 was 17 nM. `N#Cc1ccc2[nH]cc(CCC3CCCCN3Cc3cc(C(F)(F)F)cc(C(F)(F)F)c3)c2c1` (configuration not stated) gave an IC50 of 46 nM. With `CN1CCCCC1CCc1c[nH]c2ccc(C#N)cc12` (configuration not stated) the IC50 was 3.9 nM. In the case of `N#Cc1ccc2[nH]cc(CCC3CCCCN3Cc3ccccc3)c2c1` (configuration not stated), the IC50 is reported as 7 nM. `N#Cc1ccc2[nH]cc(CCC3CCCCN3)c2c1` (configuration not stated) was tested, and the IC50 was 2.5 nM. In the case of `CC1(CCc2c[nH]c3ccc(C#N)cc23)CCCCN1` (configuration not stated), the IC50 is reported as 17 nM. In the case of `CN1CCc2ccccc2C1CCc1c[nH]c2ccc(C#N)cc12` (stereo in doubt; 21a), the IC50 is reported as 1.1 nM. For `CN1CCc2ccccc2C1CCc1c[nH]c2ccc(C#N)cc12` (single isomer, unassigned; (+)), the IC50 was 4.2 nM. `CN1CCCCC1(C)CCc1c[nH]c2ccc(C#N)cc12` (configuration not stated) gave an IC50 of 2.1 nM. In the case of `N#Cc1ccc2[nH]cc(CC[C@H]3C[C@@H](Cc4ccccc4)CCN3)c2c1`, the IC50 is reported as 18 nM. `CCN1CCCCC1CCc1c[nH]c2ccc(C#N)cc12` (configuration not stated) gave an IC50 of 4 nM. In the case of `CN1CCc2ccccc2C1CCc1c[nH]c2ccc(F)cc12` (configuration not stated), the IC50 is reported as 5.7 nM. Work on `CN1CCCC1CCc1c[nH]c2ccc(C#N)cc12` (configuration not stated) yielded an IC50 of 8.1 nM. `COc1ccc2[nH]cc(CCC3c4ccccc4CCN3C)c2c1` (configuration not stated) gave an IC50 of 120 nM.

What follows are compounds tested against Sodium-dependent dopamine transporter (Homo sapiens, UniProt Q01959) (assay: Displacement of [I125]RTI-55 from human DAT transfected in human HEK293 cells).
Sequence of Sodium-dependent dopamine transporter (Q01959 whole entry): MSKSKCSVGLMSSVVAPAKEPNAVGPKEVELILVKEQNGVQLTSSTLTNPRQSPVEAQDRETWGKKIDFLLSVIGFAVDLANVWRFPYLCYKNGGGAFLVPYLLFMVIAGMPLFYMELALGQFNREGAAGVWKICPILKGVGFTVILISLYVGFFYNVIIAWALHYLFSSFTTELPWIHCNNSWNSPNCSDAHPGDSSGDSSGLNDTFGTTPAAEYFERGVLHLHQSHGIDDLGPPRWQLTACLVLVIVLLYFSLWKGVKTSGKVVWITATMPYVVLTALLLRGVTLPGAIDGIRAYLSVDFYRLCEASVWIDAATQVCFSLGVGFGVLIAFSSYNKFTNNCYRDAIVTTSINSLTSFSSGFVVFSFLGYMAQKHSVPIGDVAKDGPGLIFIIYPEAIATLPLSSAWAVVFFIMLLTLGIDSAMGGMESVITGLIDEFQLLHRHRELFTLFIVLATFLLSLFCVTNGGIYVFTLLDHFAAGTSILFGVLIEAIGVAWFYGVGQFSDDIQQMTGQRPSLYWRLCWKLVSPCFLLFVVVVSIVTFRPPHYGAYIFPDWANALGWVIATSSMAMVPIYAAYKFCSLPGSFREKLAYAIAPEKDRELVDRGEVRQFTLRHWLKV
Assay type: cell-based
`CN1CCc2ccccc2C1CCc1c[nH]c2ccc(C#N)cc12` (single isomer, unassigned; (-)) [listing 1 of 2 here] was tested, and the IC50 was 620 nM.

These compounds were tested against Sodium-dependent noradrenaline transporter (Homo sapiens, UniProt P23975) (assay: Displacement of [125I]nisoxetine from human NET transfected in human HEK293 cells).
Sequence of Sodium-dependent noradrenaline transporter (P23975 whole entry): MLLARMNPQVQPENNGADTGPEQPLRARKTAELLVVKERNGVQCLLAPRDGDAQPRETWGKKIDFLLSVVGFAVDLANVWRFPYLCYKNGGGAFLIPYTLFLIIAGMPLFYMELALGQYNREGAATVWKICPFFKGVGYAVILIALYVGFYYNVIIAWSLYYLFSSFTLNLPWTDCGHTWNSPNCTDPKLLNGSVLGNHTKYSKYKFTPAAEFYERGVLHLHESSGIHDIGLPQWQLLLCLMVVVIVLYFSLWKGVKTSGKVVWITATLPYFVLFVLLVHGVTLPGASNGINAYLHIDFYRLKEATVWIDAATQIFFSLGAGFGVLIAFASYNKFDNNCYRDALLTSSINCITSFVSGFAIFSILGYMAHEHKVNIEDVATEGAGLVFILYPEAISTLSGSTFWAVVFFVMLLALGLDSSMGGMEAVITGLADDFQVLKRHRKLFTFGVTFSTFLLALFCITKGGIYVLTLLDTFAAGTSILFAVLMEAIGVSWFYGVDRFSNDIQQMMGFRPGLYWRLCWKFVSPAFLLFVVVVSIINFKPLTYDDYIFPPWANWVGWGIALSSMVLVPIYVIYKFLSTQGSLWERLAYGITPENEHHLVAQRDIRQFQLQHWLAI
Assay type: cell-based
With `CN1CCc2ccccc2C1CCc1c[nH]c2ccc(C#N)cc12` (single isomer, unassigned; (-)) [listing 1 of 2 here] the IC50 was over 10000 nM.

Species on record: Homo sapiens
Test: Selectivity ratio of IC50 for human DAT to IC50 for human SERT
With `CN1CCc2ccccc2C1CCc1c[nH]c2ccc(C#N)cc12` (single isomer, unassigned; (-)) [listing 2 of 2 here] the Ratio IC50 was 1500.

Species on record: Homo sapiens
Test: Selectivity ratio of IC50 for human NET to IC50 for human SERT
Compound `CN1CCc2ccccc2C1CCc1c[nH]c2ccc(C#N)cc12` (single isomer, unassigned; (-)) [listing 2 of 2 here] has a Ratio IC50 of over 20000.
